Among the data in the NIST ThermoML archive (doi:10.1016/j.jct.2018.02.022) are viscosity, speed of sound and mass density values, retold here.

± gives the expanded uncertainty stated by the source.

For data set [1] the following is noted: 92.3 kPa, Liquid; for viscosity: Concentric cylinders viscometry; for speed of sound: Frequency=3 MHz, Single path-length method; for mass density: Vibrating tube method.
A short description of data set [2]: xn = mol fraction of the nth substance listed. The conditions noted are these: 92.3 kPa, Liquid, x2 = 0; for viscosity: Concentric cylinders viscometry; for mass density: Vibrating tube method.

`OCCO` [1,2-ethanediol]: the viscosity in data set [1] (293.15 K) is given as 20.61 ± 2.9 mPa·s; in data set [1] (298.15 K), 16.22 ± 2.3 mPa·s; in data set [1] (303.15 K), 13.87 ± 1.9 mPa·s; in data set [1] (308.15 K), 11.48 ± 1.6 mPa·s. In addition, the speed of sound in data set [1] (293.15 K) amounted to 1666.5 ± 1.8 m/s; in data set [1] (298.15 K), 1654.7 ± 1.8 m/s; in data set [1] (303.15 K), 1642.9 ± 1.8 m/s; in data set [1] (308.15 K) it was 1631.2 ± 1.8 m/s. Also, the values for the mass density in data set [1] (293.15 K) and in data set [1] (303.15 K) were 1113.72 ± 3 kg/m3 and 1106.71 ± 3 kg/m3, respectively.

On to `OCCOCCO` [diethylene glycol], for which the viscosity is listed as 35.89 ± 5 mPa·s in data set [1] (293.15 K), 27.67 ± 3.9 mPa·s in data set [1] (298.15 K), 22.48 ± 3.1 mPa·s in data set [1] (303.15 K) and 18.27 ± 2.6 mPa·s in data set [1] (308.15 K). Also, the speed of sound is recorded as 1591 ± 2 m/s in data set [1] (293.15 K), 1579.1 ± 2 m/s in data set [1] (298.15 K), 1567.2 ± 2 m/s in data set [1] (303.15 K) and 1555.3 ± 2 m/s in data set [1] (308.15 K). Moreover, the mass density in data set [1] (293.15 K) was 1116.73 ± 3 kg/m3; in data set [1] (298.15 K), 1113.17 ± 3 kg/m3; in data set [1] (303.15 K), 1109.6 ± 3 kg/m3; in data set [1] (308.15 K) it was 1106.01 ± 3 kg/m3.

Turning to `CCO` [ethanol], the viscosity turned out to be 1.202 ± 0.17 mPa·s in data set [1] (293.15 K), 1.091 ± 0.15 mPa·s in data set [1] (298.15 K), 0.992 ± 0.14 mPa·s in data set [1] (303.15 K) and 0.9039 ± 0.13 mPa·s in data set [1] (308.15 K). For the same compound, the speed of sound in data set [1] (293.15 K) was 1160.7 ± 1.8 m/s; in data set [1] (298.15 K), 1143.5 ± 1.8 m/s; in data set [1] (303.15 K), 1126.4 ± 1.8 m/s; in data set [1] (308.15 K), 1109.6 ± 1.8 m/s. The mass density in data set [1] (293.15 K) stood at 789.547 ± 3 kg/m3; in data set [1] (298.15 K), 785.26 ± 3 kg/m3; in data set [1] (303.15 K), 780.941 ± 3 kg/m3; in data set [1] (308.15 K) it was 776.592 ± 3 kg/m3.

As for `OCC(O)CO` [glycerol], the viscosity in data set [1] (293.15 K) worked out at 1408.4 ± 210 mPa·s; in data set [1] (298.15 K) it was 900.44 ± 130 mPa·s; in data set [1] (303.15 K), 593.09 ± 85 mPa·s; in data set [1] (308.15 K), 401.76 ± 57 mPa·s. Also, the speed of sound in data set [1] (293.15 K) was 1925.5 ± 1.8 m/s; in data set [1] (298.15 K), 1911.9 ± 1.8 m/s; in data set [1] (303.15 K), 1899.6 ± 1.8 m/s; in data set [1] (308.15 K) it was 1888.1 ± 1.8 m/s. Further, the mass density in data set [1] (293.15 K) is 1260.73 ± 3 kg/m3; in data set [1] (298.15 K), 1257.65 ± 3 kg/m3; in data set [1] (303.15 K), 1254.48 ± 3 kg/m3; in data set [1] (308.15 K) it was 1251.38 ± 3 kg/m3.

As to `OCCOCCOCCO` [triethylene glycol], the viscosity was 48.06 ± 6.7 mPa·s in data set [1] (293.15 K), 36.88 ± 5.2 mPa·s in data set [1] (298.15 K), 29.59 ± 4.1 mPa·s in data set [1] (303.15 K) and 23.72 ± 3.3 mPa·s in data set [1] (308.15 K). Moreover, the speed of sound in data set [1] (293.15 K) turned out to be 1626.8 ± 2 m/s; in data set [1] (298.15 K), 1611.6 ± 2 m/s; in data set [1] (303.15 K), 1596.6 ± 2 m/s; in data set [1] (308.15 K) it was 1581.7 ± 2 m/s. In addition, the mass density in data set [1] (293.15 K) was found to be 1123.48 ± 3 kg/m3; in data set [1] (298.15 K) it was 1119.59 ± 3 kg/m3; in data set [1] (303.15 K), 1115.7 ± 3 kg/m3; in data set [1] (308.15 K) it was 1111.81 ± 3 kg/m3.

On to `O` [water], for which the viscosity in data set [1] (293.15 K) amounted to 1.067 ± 0.15 mPa·s; in data set [1] (298.15 K), 0.8969 ± 0.13 mPa·s; in data set [1] (303.15 K), 0.8385 ± 0.12 mPa·s; in data set [1] (308.15 K) it was 0.7589 ± 0.11 mPa·s. Further, the mass density in data set [1] (293.15 K) turned out to be 998.429 ± 3 kg/m3; in data set [1] (298.15 K) it was 997.267 ± 3 kg/m3; in data set [1] (303.15 K) it was 995.867 ± 3 kg/m3; in data set [1] (308.15 K), 994.252 ± 3 kg/m3.

Regarding `O` [water] + CCO, the viscosity was found to be 1.067 ± 0.15 mPa·s in data set [2] (293.15 K), 0.8969 ± 0.13 mPa·s in data set [2] (298.15 K), 0.8385 ± 0.12 mPa·s in data set [2] (303.15 K) and 0.7589 ± 0.11 mPa·s in data set [2] (308.15 K). Further, the mass density in data set [2] (293.15 K) is listed as 998.429 ± 3 kg/m3; in data set [2] (298.15 K), 997.267 ± 3 kg/m3; in data set [2] (303.15 K), 995.867 ± 3 kg/m3; in data set [2] (308.15 K), 994.252 ± 3 kg/m3.

Regarding `O` [water] + OCC(O)CO, the viscosity in data set [2] (293.15 K) is reported as 1.067 ± 0.15 mPa·s; in data set [2] (298.15 K), 0.8969 ± 0.13 mPa·s; in data set [2] (303.15 K), 0.8385 ± 0.12 mPa·s; in data set [2] (308.15 K) it was 0.7589 ± 0.11 mPa·s. Also, the mass density in data set [2] (293.15 K) turned out to be 998.429 ± 3 kg/m3; in data set [2] (298.15 K) it was 997.267 ± 3 kg/m3; in data set [2] (303.15 K) it was 995.867 ± 3 kg/m3; in data set [2] (308.15 K), 994.252 ± 3 kg/m3.

With `O` [water] + OCCO, the viscosity in data set [2] (293.15 K) turned out to be 1.067 ± 0.15 mPa·s; in data set [2] (298.15 K) it was 0.8969 ± 0.13 mPa·s; in data set [2] (303.15 K) it was 0.8385 ± 0.12 mPa·s; in data set [2] (308.15 K), 0.7589 ± 0.11 mPa·s. Besides, the mass density in data set [2] (293.15 K) is 998.429 ± 3 kg/m3; in data set [2] (298.15 K) it was 997.267 ± 3 kg/m3; in data set [2] (303.15 K), 995.867 ± 3 kg/m3; in data set [2] (308.15 K), 994.252 ± 3 kg/m3.

In the case of `O` [water] + OCCOCCO, the viscosity in data set [2] (293.15 K) turned out to be 1.067 ± 0.15 mPa·s; in data set [2] (298.15 K), 0.8969 ± 0.13 mPa·s; in data set [2] (303.15 K), 0.8385 ± 0.12 mPa·s; in data set [2] (308.15 K), 0.7589 ± 0.11 mPa·s. In addition, the mass density was determined as 998.429 ± 3 kg/m3 in data set [2] (293.15 K), 997.267 ± 3 kg/m3 in data set [2] (298.15 K), 995.867 ± 3 kg/m3 in data set [2] (303.15 K) and 994.252 ± 3 kg/m3 in data set [2] (308.15 K).

In the case of `O` [water] + OCCOCCOCCO, the viscosity in data set [2] (293.15 K) is 1.067 ± 0.15 mPa·s; in data set [2] (298.15 K) it was 0.8969 ± 0.13 mPa·s; in data set [2] (303.15 K), 0.8385 ± 0.12 mPa·s; in data set [2] (308.15 K) it was 0.7589 ± 0.11 mPa·s. In addition, the mass density in data set [2] (293.15 K) is on record as 998.429 ± 3 kg/m3; in data set [2] (298.15 K), 997.267 ± 3 kg/m3; in data set [2] (303.15 K), 995.867 ± 3 kg/m3; in data set [2] (308.15 K), 994.252 ± 3 kg/m3.
